# Laboratory results from patent US9550742B2, “11-OXO-10,11-dihydrodibenzo[B,F][1,4]thiazepine S-oxide derivatives and their use as dopamine D2 receptor antagonists” (The United States of America, as Represented by the …, priority 2013, dated 2017).
# Key:
# 5-HT7 = 5-HT7 (Homo sapiens, UniProt P34969); assay: Affinity profile panel: 5-HT7; details: inhibition of binding
# 5-HT2B = 5-HT2B (Homo sapiens, UniProt P41595); assay: Affinity profile panel: 5-HT2B; details: inhibition of binding
# Excerpt: (§1) Antipsychotic drugs (depending on the specific drug) typically interact with a range of serotonergic, adrenergic, histaminergic, and muscarinic receptors.
# Alpha1D = Alpha1D (Homo sapiens, UniProt P25100); assay: Affinity profile panel: Alpha1D; details: inhibition of binding
# Alpha1B = Alpha1B (Homo sapiens, UniProt P35368); assay: Affinity profile panel: Alpha1B; details: inhibition of binding
# Chain of Alpha1B (P35368 whole entry): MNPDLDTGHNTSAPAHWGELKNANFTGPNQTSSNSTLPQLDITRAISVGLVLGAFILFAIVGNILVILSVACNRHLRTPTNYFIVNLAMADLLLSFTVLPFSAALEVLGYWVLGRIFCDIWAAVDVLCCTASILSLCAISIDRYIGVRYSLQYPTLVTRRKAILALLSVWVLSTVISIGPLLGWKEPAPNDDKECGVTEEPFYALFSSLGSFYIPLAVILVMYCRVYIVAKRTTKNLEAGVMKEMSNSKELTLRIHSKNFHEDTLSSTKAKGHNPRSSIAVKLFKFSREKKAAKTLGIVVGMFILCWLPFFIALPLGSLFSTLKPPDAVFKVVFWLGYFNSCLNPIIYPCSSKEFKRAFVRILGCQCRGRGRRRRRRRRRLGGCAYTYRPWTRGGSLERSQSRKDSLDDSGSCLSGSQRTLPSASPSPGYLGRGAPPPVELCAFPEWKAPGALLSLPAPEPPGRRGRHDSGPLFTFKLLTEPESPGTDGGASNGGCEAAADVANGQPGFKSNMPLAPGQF
# H3 = H3 (Homo sapiens, UniProt Q9Y5N1); assay: Affinity profile panel: H3; details: inhibition of binding
# [1] = target: D3 dopamine receptor (DAR) (Homo sapiens, UniProt P35462); assay: D3 beta-arrestin functional assay (PathHunter, CHO); assay type: cell-based; details: dose response curve; read-out: D3 β-arrestin assay AC50
# Chain of D3 dopamine receptor (DAR) (P35462 whole entry): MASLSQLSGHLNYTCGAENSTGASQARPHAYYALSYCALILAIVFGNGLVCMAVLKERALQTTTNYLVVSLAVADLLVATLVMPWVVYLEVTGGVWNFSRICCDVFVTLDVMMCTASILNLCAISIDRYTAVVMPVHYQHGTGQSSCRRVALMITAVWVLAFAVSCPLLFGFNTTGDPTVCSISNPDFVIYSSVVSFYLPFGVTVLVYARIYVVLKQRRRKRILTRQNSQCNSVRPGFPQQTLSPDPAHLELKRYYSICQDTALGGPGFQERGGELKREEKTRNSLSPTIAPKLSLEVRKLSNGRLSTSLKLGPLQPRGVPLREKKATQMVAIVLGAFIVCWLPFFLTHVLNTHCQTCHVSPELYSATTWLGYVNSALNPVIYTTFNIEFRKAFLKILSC
# Excerpt: A CHO cell line was engineered to overexpress D3 dopamine receptor (DAR) and fused with a small 42-amino acid fragment of β-gal called ProLink™. In addition, these cells stably express a fusion protein of β-arrestin and a larger N-terminal deletion mutant of β-galactosidase (“enzyme acceptor”). When DAR is activated by dopamine, it stimulates binding of β-arrestin to ProLink-tagged DARs, and the two complementary parts of β-galactosidase form a functional enzyme. When substrate (PathHunter® Detection reagent) is added, βgalactosidase hydrolyzes it and generates a chemiluminescent signal.
# For the 1,536-well assay, D3 PathHunter® β-arrestin cells were seeded at 2,100 cells/well in 3 μL/well media (DiscoveRx Plating Reagent 2) with MultiDrop Combi dispenser (Thermo Scientific, Logan, Utah) onto white tissue culture treated 1,536-well Aurora plates (Brooks Automation, Chelmsford, Mass.) and allowed to attach overnight at 37° C., 5% CO2. Next, 23 nL/well of compound solutions in DMSO were added with a pintool transfer (Kalypsis, San Diego, Calif.). The cells were stimulated by compounds for 90 minutes at 37° C., 5% CO2, after which 1.5 μL/well of DiscoveRx detection reagent was added with BioRAPTR FRD dispenser. […] The plates were incubated at ambient temperature for 1 h, and the luminescent signal was read on ViewLux plate reader (PerkinElmer, Waltham, Mass.).
# M3 = M3 (Homo sapiens, UniProt P20309); assay: Affinity profile panel: M3; details: inhibition of binding
# 5-HT6 = 5-HT6 (Homo sapiens, UniProt P50406); assay: Affinity profile panel: 5-HT6; details: inhibition of binding
# PBR = PBR (Homo sapiens, UniProt P30536); assay: Affinity profile panel: PBR; details: inhibition of binding
# Chain of PBR (P30536 whole entry, species assumed): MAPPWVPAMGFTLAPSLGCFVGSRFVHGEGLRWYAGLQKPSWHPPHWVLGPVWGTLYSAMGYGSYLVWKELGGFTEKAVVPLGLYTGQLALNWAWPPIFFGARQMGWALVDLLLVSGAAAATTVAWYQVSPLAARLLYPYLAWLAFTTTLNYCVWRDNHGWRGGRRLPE
# 5-HT1E = 5-HT1E (Homo sapiens, UniProt P28566); assay: Affinity profile panel: 5-HT1E; details: inhibition of binding
# Chain of 5-HT1E (P28566 whole entry, species assumed): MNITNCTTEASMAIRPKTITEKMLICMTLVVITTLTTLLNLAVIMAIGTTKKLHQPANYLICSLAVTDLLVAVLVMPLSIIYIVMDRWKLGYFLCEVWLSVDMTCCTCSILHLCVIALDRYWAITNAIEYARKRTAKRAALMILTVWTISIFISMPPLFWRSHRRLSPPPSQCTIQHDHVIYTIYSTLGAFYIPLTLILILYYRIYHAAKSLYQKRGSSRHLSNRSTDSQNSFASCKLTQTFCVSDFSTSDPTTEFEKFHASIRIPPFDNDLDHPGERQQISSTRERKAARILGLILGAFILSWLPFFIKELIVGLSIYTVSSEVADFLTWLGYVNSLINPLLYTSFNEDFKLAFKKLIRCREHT
# M2 = M2 (Homo sapiens, UniProt P08172); assay: Affinity profile panel: M2; details: inhibition of binding
# Chain of M2 (P08172 whole entry): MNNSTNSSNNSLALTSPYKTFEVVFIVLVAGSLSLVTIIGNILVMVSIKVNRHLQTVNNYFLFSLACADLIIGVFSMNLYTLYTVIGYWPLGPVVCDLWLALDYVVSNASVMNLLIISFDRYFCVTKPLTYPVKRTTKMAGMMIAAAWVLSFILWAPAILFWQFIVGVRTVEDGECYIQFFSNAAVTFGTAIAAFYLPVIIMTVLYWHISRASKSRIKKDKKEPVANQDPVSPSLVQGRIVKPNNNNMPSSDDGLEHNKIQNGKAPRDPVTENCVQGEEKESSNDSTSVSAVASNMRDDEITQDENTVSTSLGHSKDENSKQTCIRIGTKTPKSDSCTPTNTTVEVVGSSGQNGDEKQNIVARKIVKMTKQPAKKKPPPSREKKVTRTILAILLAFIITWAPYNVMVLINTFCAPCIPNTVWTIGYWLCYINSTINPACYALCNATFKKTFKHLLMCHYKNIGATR
# Beta1 = Beta1 (Homo sapiens, UniProt P08588); assay: Affinity profile panel: Beta1; details: inhibition of binding
# Chain of Beta1 (P08588 whole entry): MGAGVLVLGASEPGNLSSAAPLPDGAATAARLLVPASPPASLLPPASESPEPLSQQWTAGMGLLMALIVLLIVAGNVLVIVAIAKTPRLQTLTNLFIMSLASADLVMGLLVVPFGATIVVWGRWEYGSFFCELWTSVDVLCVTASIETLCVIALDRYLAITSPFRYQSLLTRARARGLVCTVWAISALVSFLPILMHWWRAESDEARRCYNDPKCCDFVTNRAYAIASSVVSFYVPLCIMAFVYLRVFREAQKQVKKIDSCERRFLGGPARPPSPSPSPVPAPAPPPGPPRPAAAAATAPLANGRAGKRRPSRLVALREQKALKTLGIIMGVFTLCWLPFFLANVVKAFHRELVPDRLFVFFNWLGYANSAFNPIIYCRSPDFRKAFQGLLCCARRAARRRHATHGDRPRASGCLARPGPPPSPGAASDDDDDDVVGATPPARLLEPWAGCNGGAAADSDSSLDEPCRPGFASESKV
# [2] = target: D2L human dopamine receptors (Homo sapiens, UniProt P14416); assay: D2 binding assay ([^3H]methylspiperone, HEK membranes)
# Chain of D2L human dopamine receptors (P14416 whole entry): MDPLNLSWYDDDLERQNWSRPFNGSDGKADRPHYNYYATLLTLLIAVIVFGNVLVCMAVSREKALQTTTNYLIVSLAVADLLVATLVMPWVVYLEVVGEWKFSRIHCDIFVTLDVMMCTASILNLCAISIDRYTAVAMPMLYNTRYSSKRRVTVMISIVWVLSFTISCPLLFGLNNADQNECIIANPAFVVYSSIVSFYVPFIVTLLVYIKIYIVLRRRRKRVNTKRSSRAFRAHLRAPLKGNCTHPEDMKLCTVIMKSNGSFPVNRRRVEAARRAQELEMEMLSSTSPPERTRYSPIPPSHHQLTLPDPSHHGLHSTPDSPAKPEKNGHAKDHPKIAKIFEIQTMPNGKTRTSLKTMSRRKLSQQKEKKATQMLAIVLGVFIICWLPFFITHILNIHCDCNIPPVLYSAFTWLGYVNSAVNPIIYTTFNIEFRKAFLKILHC
# Protocol: Compounds were tested for differences in affinity between three dopamine receptor subtypes using radio-labeled ligand binding assays. The first assay determined the Ki value of the compounds for the D2 DAR subtype using stable HEK cell lines expressing the D2L human dopamine receptors (Codex Biosciences, Gaithersburg, Md.). Cells were cultured in Dulbecco's modified Eagle's Medium containing 10% FBS, 1,000 units/mL Penicillin, 1,000 mg/mL Streptomycin, 100 mM Sodium Pyruvate, 1 μg/mL Gentamicin, and […] G418. All cells were maintained at 37° C. in 5% CO2 and 90% humidity. For radioligand binding assays, cells were removed mechanically using calcium and magnesium-free Earle's Balanced Salt Solution (EBSS(−)). Intact cells were collected by centrifugation and then lysed with 5 mM Tris-HCl and 5 mM MgCl2 at pH 7.4 in a glass homogenizer. Homogenates were centrifuged at 20,000×g for 30 minutes. The membranes were re-suspended in EBSS (pH 7.4) and protein concentration was determined using a Bradford assay according to the manufacturer's recommendations (Bio-Rad). Membranes were diluted to 24 mg/mL. […] Membrane preparations were incubated for 90 min at room temperature with various concentrations of radioligand in a reaction volume of 250 μL EBSS containing 200 mM sodium metabisulfite. Non-specific binding was determined in the presence of 4 μM (+)-butaclamol. Bound ligand was separated from unbound by filtration through GF/C filters using a PerkinElmer cell harvester with ice cold EBSS (4 washes) and quantified on a Top-count (PerkinElmer) after addition of scintillation solution. […] In order to determine the affinity of a given compound for a receptor type, competition-binding assays were performed. […] Reactions were incubated, terminated, and quantified as indicated above.
# SERT = SERT (Homo sapiens, UniProt P31645); assay: Affinity profile panel: SERT; details: inhibition of binding
# Chain of SERT (P31645 whole entry, species assumed): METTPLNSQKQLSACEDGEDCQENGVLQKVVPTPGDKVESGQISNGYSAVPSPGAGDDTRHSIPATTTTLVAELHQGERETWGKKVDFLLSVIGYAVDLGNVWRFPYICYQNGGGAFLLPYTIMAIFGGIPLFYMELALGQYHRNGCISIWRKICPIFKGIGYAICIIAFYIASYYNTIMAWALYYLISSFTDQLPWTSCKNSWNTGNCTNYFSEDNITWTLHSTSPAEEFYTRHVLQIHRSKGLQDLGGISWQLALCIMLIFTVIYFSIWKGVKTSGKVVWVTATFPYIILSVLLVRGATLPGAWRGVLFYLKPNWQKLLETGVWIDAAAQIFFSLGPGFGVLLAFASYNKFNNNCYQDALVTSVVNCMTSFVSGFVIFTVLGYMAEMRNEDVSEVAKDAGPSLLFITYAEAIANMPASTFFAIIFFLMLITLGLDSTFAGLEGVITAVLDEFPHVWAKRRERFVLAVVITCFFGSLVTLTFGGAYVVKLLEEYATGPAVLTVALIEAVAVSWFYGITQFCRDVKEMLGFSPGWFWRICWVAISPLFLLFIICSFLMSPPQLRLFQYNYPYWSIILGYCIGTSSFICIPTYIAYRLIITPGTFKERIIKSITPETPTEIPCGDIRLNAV
# Excerpt: as §1
# D2 GPCR receptor (DAR) = target: T1, D2 GPCR receptor (DAR) (Homo sapiens, UniProt P14416); assay: D2 beta-arrestin functional assay (PathHunter, CHO); assay type: cell-based
# T1 construct: host or cells: CHO PathHunter β-arrestin cells
# T1 sequence (P14416 whole entry): as the sequence (P14416 whole entry) above
# Excerpt: For a secondary-screen and selectivity assays, DAR PathHunter® β-arrestin GPCR cell lines from DiscoveRx (Fremont, Calif.). In this) were used. In the D2 Receptor PathHunter® β-arrestin GPCR cell line, the D2 GPCR receptor (DAR) is overexpressed and fused with a small 42-amino acid fragment of β-galactosidase called ProLink™ on a CHO cellular background expressing a fusion protein of β-arrestin and a larger N-terminal deletion mutant of β-galactosidase (“enzyme acceptor”). When DAR is activated by dopamine, it stimulates binding of β-arrestin to the ProLink-tagged DAR and the two complementary parts of β-galactosidase form a functional enzyme. When substrate (PathHunter® Detection reagent) is added, β-galactosidase hydrolyzes it and generates a chemiluminescent signal.
# D2 Receptor PathHunter® β-arrestin cells were seeded at 2,100 cells/well in 3 μL/well media (DiscoveRx Plating Reagent 2) with MultiDrop Combi dispenser (Thermo Scientific, Logan, Utah) onto white tissue culture treated 1,536-well Aurora plates (Brooks Automation, Chelmsford, Mass.) and allowed to attach overnight at 37° C., 5% CO2. Next, 23 nL/well of compound solutions in DMSO were added with a pintool transfer (Kalypsis, San Diego, Calif.). The cells were stimulated by compounds for 90 min at 37° C., 5% CO2, after which 1.5 μL/well of DiscoveRx detection reagent was added with BioRAPTR FRD dispenser. The detection reagent was prepared by mixing of Galacton Star Substrate, Emerald II solution and PathHunter buffer (supplied by the assay kit) together at a 1:5:19 proportion just prior to dispensing. The plates were incubated at ambient temperature for 1 hr, and the luminescent signal was read on a ViewLux plate reader (PerkinElmer, Waltham, Mass.).
# 5-HT3 = 5-HT3 (Homo sapiens, UniProt P46098); assay: Affinity profile panel: 5-HT3; details: inhibition of binding
# Chain of 5-HT3 (P46098 24-478, species assumed): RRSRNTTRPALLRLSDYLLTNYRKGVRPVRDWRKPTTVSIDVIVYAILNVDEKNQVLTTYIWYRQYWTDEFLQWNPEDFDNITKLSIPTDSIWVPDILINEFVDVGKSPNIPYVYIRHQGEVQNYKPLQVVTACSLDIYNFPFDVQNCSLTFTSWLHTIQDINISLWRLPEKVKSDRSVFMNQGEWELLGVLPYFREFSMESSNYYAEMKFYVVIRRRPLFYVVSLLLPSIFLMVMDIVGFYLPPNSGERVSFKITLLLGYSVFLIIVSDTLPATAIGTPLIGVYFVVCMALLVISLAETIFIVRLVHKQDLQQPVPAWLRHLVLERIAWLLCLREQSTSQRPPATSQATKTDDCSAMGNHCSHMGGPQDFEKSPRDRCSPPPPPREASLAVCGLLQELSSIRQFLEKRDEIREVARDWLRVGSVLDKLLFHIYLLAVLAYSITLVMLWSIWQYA
# 5-HT1A = 5-HT1A (Homo sapiens, UniProt P08908); assay: Affinity profile, panel of 46 GPCRs and related proteins: 5-HT1A; details: inhibition of binding
# Chain of 5-HT1A (P08908 whole entry, species assumed): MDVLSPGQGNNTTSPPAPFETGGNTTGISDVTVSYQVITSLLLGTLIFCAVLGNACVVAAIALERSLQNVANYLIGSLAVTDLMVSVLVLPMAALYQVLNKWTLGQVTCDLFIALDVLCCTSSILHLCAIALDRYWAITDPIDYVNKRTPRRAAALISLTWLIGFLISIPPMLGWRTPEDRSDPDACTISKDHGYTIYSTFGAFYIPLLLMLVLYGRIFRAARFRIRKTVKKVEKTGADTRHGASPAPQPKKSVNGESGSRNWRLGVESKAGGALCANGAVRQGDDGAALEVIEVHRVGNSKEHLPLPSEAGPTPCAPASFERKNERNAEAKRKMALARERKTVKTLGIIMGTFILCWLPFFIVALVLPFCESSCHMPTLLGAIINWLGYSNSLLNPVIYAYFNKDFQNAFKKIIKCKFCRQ
# Alpha2C = Alpha2C (Homo sapiens, UniProt P18825); assay: Affinity profile panel: Alpha2C; details: inhibition of binding
# Chain of Alpha2C (P18825 whole entry): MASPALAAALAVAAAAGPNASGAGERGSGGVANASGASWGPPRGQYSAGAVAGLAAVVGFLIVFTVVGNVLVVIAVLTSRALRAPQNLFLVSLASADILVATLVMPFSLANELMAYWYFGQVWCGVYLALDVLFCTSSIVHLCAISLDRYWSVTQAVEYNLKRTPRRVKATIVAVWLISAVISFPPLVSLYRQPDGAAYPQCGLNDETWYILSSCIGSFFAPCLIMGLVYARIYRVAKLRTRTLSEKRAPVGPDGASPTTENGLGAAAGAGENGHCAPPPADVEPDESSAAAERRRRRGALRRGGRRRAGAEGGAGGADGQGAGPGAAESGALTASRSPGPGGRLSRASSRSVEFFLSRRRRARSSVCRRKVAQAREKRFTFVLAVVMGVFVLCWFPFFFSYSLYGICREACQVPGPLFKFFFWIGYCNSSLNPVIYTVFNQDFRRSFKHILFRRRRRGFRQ
smiles,measurement,setting,value
"CN1C(=O)c2ccccc2[S@+]([O-])c2ccc(C(=O)NCCc3cccs3)cc21 [Compound 55, 10-Methyl-11-oxo-N-(2-(thiophen-2-yl)ethyl)-10,11-dihydrodibenzo[b,f][1,4]thiazepine-8-carboxamide 5-(S)-oxide]",Inhibition (%) 5-HT7,5-HT7,53.3%
same,Inhibition (%) 5-HT2B,5-HT2B,40.1%
same,Inhibition (%) Alpha1D,Alpha1D,−22.6%
same,Inhibition (%) Alpha1B,Alpha1B,−0.2%
same,Inhibition (%) H3,H3,−23.6%
same,AC50,[1],12900 nM
same,Inhibition (%) M3,M3,5.2%
same,Inhibition (%) 5-HT6,5-HT6,−15.6%
same,Inhibition (%) PBR,PBR,31%
same,Inhibition (%) 5-HT1E,5-HT1E,9.9%
same,Inhibition (%) M2,M2,−1.7%
same,Inhibition (%) Beta1,Beta1,12.6%
same,Ki,[2],100 nM
same,D3/D2 binding Ki ratio,[2]; ratio of D3 (Example 5) to D2 (Example 3) binding assay,29.0
same,Inhibition (%) SERT,SERT,4.8%
same,AC50,"D2 GPCR receptor (DAR); dose response curve, read-out: D2 β-arrestin assay AC50",725 nM
same,D3/D2 beta-arrestin IC50ratio,D2 GPCR receptor (DAR); ratio of D3 (Example 4) to D2 (Example 2) beta arrestin assay,17.8
same,Inhibition (%) 5-HT3,5-HT3,8.5%
same,Inhibition (%) 5-HT1A,5-HT1A,8.2%
same,Inhibition (%) Alpha2C,Alpha2C,20.9%
